Consider 15 molecules from patent US11420962B2, “Indene derivatives useful in treating pain and inflammation” (TARO PHARMACEUTICALS INC., priority 2018, dated 2022).

A short description of data set [1]: Metabolism by human liver microsomes. The following applies: Table 8; 10 µM, in the presence of NADPH, 1 mg/mL protein. In kind it is in vitro ADME. On the procedure: Representative compounds of the invention (i.e., test compounds) and the positive control, 7-ethoxycoumarin, were prepared as stock solutions at 10 mM in DMSO and eventually diluted to 10 μM in the test plate, with an appropriate amount of acetonitrle and tris HCl buffer. Final DMSO and acetonitrile concentrations were […] and 0.5% respectively. NADPH was prepared in tris HCl buffer to a stock of 10 mM. A frozen aliquot of live microsomes was retrieved from the freezer (−80° C.) and thawed by placing the tube on wet ice. After thawing, the tubes were gently mixed and the required amount, transferred to tris HCl buffer. Test compounds or positive control were pre-incubated, separately, for 10 minutes, with liver microsomes (1 mg/mL protein), at 37° C., in 100 mM Tris HCl at pH 7.5. After preincubation the reaction was started by adding 1 mM NADPH (pre-equilibrated to […]) and the reaction allowed to proceed for 60 minutes. At 60 minutes, a 50 μL aliquot was removed and quenched with 200 uL of acetonitrile containing a mixture of internal standards (Tolbutamide (500 ng/mL) and Telmistartan (500 ng/mL)) and vortexed then centrifuged at 4000 rmp for 10 minutes (Eppendorf 5810R). The supernatant was transferred to a 96 well plate for LC-MS/MS analysis.
An LC-MS/MS method was devised for the test compounds and the control, using a AB Sciex API 4000 system coupled to a NEXAR™ UHPLC (Shimadzu) system. Analytes were separated on a Phenomenex Kinetex C18 column (50×2.1 mm, 5 μm) using a gradient that was appropriate for each compound, at a flow rate of 1 ml/minute, utilizing a mobile phase of 0.1% formic acid in MILLI-Q™ water (A) and 0.1% formic acid in acetonitrile (B). The MS instrument was operated in positive mode (ESI+)/negative (ESI−). The multiple reaction monitoring (MRM) transition for test and control compounds was used for the LC-MS/MS analysis. MRM transitions for control compound 7-ethoxycoumarinm were Quadropole 1: 191.0, Quadropole 3: 163.0, dwell time: 75 msec, using curtain gas settings of 5 V, ion-spray voltage of 5500 V, temperature of 50° C. and gas settings for nebulizer and auxiliary set to 30 and 40 psi, respectively. The interface heater was kept on. Entrance potential and collision cell exit potential were varied to tune for a specific compound.
Using a suitable LC-MS/MS method, the percentage of drug remaining at 60 minutes ([…]) was assessed by comparing the average analyte to internal standard area ratio at 60 minutes to the average analyte to internal standard area ratio at 0 time control, as a percentage, from a 5 to 10 μL sample injection.
According to the above assay, the representative compounds listed in Table 8 below were active in the Human liver microsome assay at […] and the % of drug remaining after 60 minutes (PDR60), in the presence of NADPH, was assessed by LC-MS/MS. Average PDR60 for the standard compound, 7-ethoxycoumarin was <=65% in the presence of NADPH. Scoring for the test compounds, in the presence of NADPH, was as follows: “A” represents a PDR^60 of 81 to 100%, “B” represents a PDR^60 of 61 to 80%, “C” represents a PDR^60 of 31 to 60% and “D” represents a PDR^60 of 0 to 30%.

The test system of the next data set is Rat DRG. The experiment in a line: Rat dorsal root ganglion excitability response (EFS, Ca2+ transients). In kind it is cell-based. The following applies: Rattus norvegicus; Table 3; electrical field stimulation, Ca5 indicator; read-out: Scoring (EC50, Rat DRG excitability). On the procedure:
Dorsal root ganglions (DRGs) were dissected from adult rats. The tissue was processed, and cells were seeded into call culture plates (48 center wells of one quadrant in 384-well plates) and cultured for 2 days prior to Electrical field stimulation (EFS). To visualize the neuronal excitability response, intracellular Ca^+2 transients were monitored using the Ca^+2 indicator, Ca5. Ca5 was added to the cultures 1 h prior to EFS. Representative test compounds of the invention (i.e., test compounds) and reference compound, tetracaine, were added in concentration-response format encompassing six concentrations, performed in duplicate. The highest concentration tested was typically 30 μM with 1 in 3 dilutions generating the subsequent concentrations.
Effects on DRG excitability by the test compounds and standard were evaluated using four EFS protocols as disclosed in Table 2.
Experimental results were performed using two separate sets of plates using separate test compound and standard dilutions, to provide n=2. In the first set of experiments, compounds were added 24 h prior to EFS to increase the possibility to also detect more long-term compound effects. In the second set of experiments the compounds were added directly prior to EFS. Excitability response to EFS was analyzed as the average fluorescence ratio (peak/baseline) change per well. All plates were evaluated using high content imaging equipment post-EFS, imaging the Ca5 background staining to detect any possible compound-related toxic effects.
Average response by the standard compound, tetracaine, was 4.05 μM.

`C=C1CC[C@H]2[C@H](CN)[C@@H]([C@@]3(C)Cc4cnn(C5CCCCC5)c4C[C@@H]3CO)CC[C@]12C` [Ia-16, ((5R,6S)-5-((3aS,4R,5S,7aS)-4-(aminomethyl)-7a-methyl-1-methyleneoctahydro-1H-inden-5-yl)-1-cyclohexyl-5-methyl-4,5,6,7-tetrahydro-1H-indazol-6-yl)methanol]: the “Scoring (% of drug remaining after 60 minutes, PDR60)” value in data set [1] was “B (a PDR^60 of 61 to 80%)”. The EC50 in the data set with Rat DRG lay within 2 to 6 µM.
Taken in the same sequence, the figures for `C=C1CC[C@H]2[C@H](CN)[C@@H]([C@@]3(C)Cc4cn(Cc5ccccc5)nc4C[C@@H]3CO)CC[C@]12C` [Ia-19, ((5R,6S)-5-((3aS,4R,5S,7aS)-4-(aminomethyl)-7a-methyl-1-methyleneoctahydro-1H-inden-5-yl)-2-benzyl-5-methyl-4,5,6,7-tetrahydro-2H-indazol-6-yl)methanol] were “B (a PDR^60 of 61 to 80%)” and 2 to 6 µM.
Taken in the same sequence, the figures for `C=C1CC[C@H]2[C@H](CN)[C@@H]([C@@]3(C)Cc4cnn(-c5cccnc5)c4C[C@@H]3CO)CC[C@]12C` [Ia-20, ((5R,6S)-5-((3aS,4R,5S,7aS)-4-(aminomethyl)-7a-methyl-1-methyleneoctahydro-1H-inden-5-yl)-5-methyl-1-(pyridin-3-yl)-4,5,6,7-tetrahydro-1H-indazol-6-yl)methanol] were “D (a PDR^60 of 0 to 30%)” and 6 to 15 µM.
For the molecule `C=C1CC[C@H]2[C@H](CN)[C@@H]([C@@]3(C)Cc4cnn(CC(C)(C)C)c4C[C@@H]3CO)CC[C@]12C` [Ia-22, ((5R,6S)-5-((3aS,4R,5S,7aS)-4-(aminomethyl)-7a-methyl-1-methyleneoctahydro-1H-inden-5-yl)-5-methyl-1-neopentyl-4,5,6,7-tetrahydro-1H-indazol-6-yl)methanol], the “Scoring (% of drug remaining after 60 minutes, PDR60)” value in data set [1] is recorded as “D (a PDR^60 of 0 to 30%)”. For the same molecule, in the data set with Rat DRG, the concentration for a half-maximal effect (EC50) lay within 2 to 6 µM.
For `C[C@H]1CC[C@H]2[C@H](CN)[C@@H]([C@@]3(C)Cc4cn(-c5ccccc5)nc4C[C@@H]3CO)CC[C@]12C` [Ia-36, ((5R,6S)-5-((1S,3aS,4S,5S,7aR)-4-(aminomethyl)-1,7a-dimethyloctahydro-1H-inden-5-yl)-5-methyl-2-phenyl-4,5,6,7-tetrahydro-2H-indazol-6-yl)methanol], in that order: “A (a PDR^60 of 81 to 100%)” and 2 to 6 µM.
For the molecule `C[C@H]1CC[C@H]2[C@H](CN)[C@@H]([C@@]3(C)Cc4cn(C(C)(C)C)nc4C[C@@H]3CO)CC[C@]12C` [Ia-41, ((5R,6S)-5-((1S,3aS,4S,5S,7aR)-4-(aminomethyl)-1,7a-dimethyloctahydro-1H-inden-5-yl)-2-(tert-butyl)-5-methyl-4,5,6,7-tetrahydro-2H-indazol-6-yl)methanol], the “Scoring (% of drug remaining after 60 minutes, PDR60)” value in data set [1] is recorded as “A (a PDR^60 of 81 to 100%)”. Moreover, the EC50 in the data set with Rat DRG was under 2 µM.
For `C=C1CC[C@H]2[C@H](CN3CCCCC3)[C@@H]([C@@]3(C)Cc4cn[nH]c4C[C@@H]3CO)CC[C@]12C` [Ia-47, ((5R,6S)-5-methyl-5-((3aS,4R,5S,7aS)-7a-methyl-1-methylene-4-(piperidin-1-ylmethyl)octahydro-1H-inden-5-yl)-4,5,6,7-tetrahydro-1H-indazol-6-yl)methanol], in that order: “D (a PDR^60 of 0 to 30%)” and 6 to 15 µM.
In the case of `C=C1CC[C@H]2[C@H](CN3CCN(C)CC3)[C@@H]([C@@]3(C)Cc4cn[nH]c4C[C@@H]3CO)CC[C@]12C` [Ia-48, ((5R,6S)-5-methyl-5-((3aS,4R,5S,7aS)-7a-methyl-1-methylene-4-((4-methylpiperazin-1-yl)methyl)octahydro-1H-inden-5-yl)-4,5,6,7-tetrahydro-1H-indazol-6-yl)methanol], the “Scoring (% of drug remaining after 60 minutes, PDR60)” value in data set [1] is listed as “D (a PDR^60 of 0 to 30%)”. Further, the EC50 with Rat DRG fell in the range of 6 to 15 µM.
Taken in the same sequence, the figures for `CC=C1CC[C@H]2[C@H](CN)[C@@H]([C@@]3(C)Cc4cn[nH]c4C[C@@H]3CO)CC[C@]12C` [Ia-65, ((5R,6S)-5-((3aS,4R,5S,7aS)-4-(aminomethyl)-1-ethylidene-7a-methyloctahydro-1H-inden-5-yl)-5-methyl-4,5,6,7-tetrahydro-1H-indazol-6-yl)methanol] were “A (a PDR^60 of 81 to 100%)” and 6 to 15 µM.
For `C=C1CC[C@H]2[C@H](CO)[C@@H]([C@@]3(C)Cc4cn[nH]c4C[C@@H]3CN3CCOCC3)CC[C@]12C` [Ia-72, ((3aS,4R,5S,7aS)-7a-methyl-5-((5R,6S)-5-methyl-6-(morpholinomethyl)-4,5,6,7-tetrahydro-1H-indazol-5-yl)-1-methyleneoctahydro-1H-inden-4-yl)methanol], in that order: “D (a PDR^60 of 0 to 30%)” and over 15 µM.
Take `C=C1CC[C@H]2[C@H](CN)[C@@H]([C@@]3(C)Cc4cn[nH]c4C[C@@H]3CN3CCOCC3)CC[C@]12C` [Ia-76, ((3aS,4R,5S,7aS)-7a-methyl-5-((5R,6S)-5-methyl-6-(morpholinomethyl)-4,5,6,7-tetrahydro-1H-indazo1-5-yl)-1-methyleneoctahydro-1H-inden-4-yl)methanamine]: in data set [1], the “Scoring (% of drug remaining after 60 minutes, PDR60)” value was “D (a PDR^60 of 0 to 30%)”. For the same molecule, the EC50 with Rat DRG lay within 6 to 15 µM.
Taken in the same sequence, the figures for `C=C1CC[C@H]2[C@H](CO)[C@@H]([C@@]3(C)Cc4cn[nH]c4C[C@@H]3CN)CC[C@]12C` [Ia-82, ((3aS,4R,5S,7aS)-5-((5R,6S)-6-(aminomethyl)-5-methyl-4,5,6,7-tetrahydro-1H-indazol-5-yl)-7a-methyl-1-methyleneoctahydro-1H-inden-4-yl)methanol] were “B (a PDR^60 of 61 to 80%)” and 6 to 15 µM.
For `C=C1CC[C@H]2[C@H](CN)[C@@H]([C@@]3(C)Cc4nccnc4C[C@@H]3CO)CC[C@]12C` [Ib-2, ((6S,7R)-7-((3aS,4R,5S,7aS)-4-(aminomethyl)-7a-methyl-1-methyleneoctahydro-1H-inden-5-yl)-7-methyl-5,6,7,8-tetrahydroquinoxalin-6-yl)methanol], in that order: “B (a PDR^60 of 61 to 80%)” and over 15 µM.
For the molecule `C=C1CC[C@H]2[C@H](CN)[C@@H]([C@@]3(C)Cc4cnc(N)nc4C[C@@H]3CO)CC[C@]12C` [Ic-1, ((6R,7S)-2-amino-6-((3aS,4R,5S,7aS)-4-(aminomethyl)-7a-methyl-1-methyleneoctahydro-1H-inden-5-yl)-6-methyl-5,6,7,8-tetrahydroquinazolin-7-yl)methanol], the “Scoring (% of drug remaining after 60 minutes, PDR60)” value in data set [1] was “A (a PDR^60 of 81 to 100%)”. Also, in the data set on Rat DRG, the EC50 was over 15 µM.
For `C=C1CC[C@H]2[C@H](CN)[C@@H]([C@@]3(C)Cc4cncnc4C[C@@H]3CO)CC[C@]12C` [Ic-3, ((6R,7S)-6-((3aS,4R,5S,7aS)-4-(aminomethyl)-7a-methyl-1-methyleneoctahydro-1H-inden-5-yl)-6-methyl-5,6,7,8-tetrahydroquinazolin-7-yl)methanol], in that order: “A (a PDR^60 of 81 to 100%)” and over 15 µM.
